Source: patent publication US20230278996A1, “YKL-40 INHIBITORS AND THEIR THERAPEUTIC APPLICATIONS” (Molecure S.A., priority 2022, published 2023)
Counter-ions that a name gives are not always drawn.

Biological target: YKL-40 (Homo sapiens (Human), UniProt P36222)
Test: YKL-40:4 assay, competitive chitin binding site AlphaScreen
Settings: competition with biotinylated compound 4 (20 nM), YKL-40-histag 2.5 nM

Sequence of YKL-40 (P36222 22-383): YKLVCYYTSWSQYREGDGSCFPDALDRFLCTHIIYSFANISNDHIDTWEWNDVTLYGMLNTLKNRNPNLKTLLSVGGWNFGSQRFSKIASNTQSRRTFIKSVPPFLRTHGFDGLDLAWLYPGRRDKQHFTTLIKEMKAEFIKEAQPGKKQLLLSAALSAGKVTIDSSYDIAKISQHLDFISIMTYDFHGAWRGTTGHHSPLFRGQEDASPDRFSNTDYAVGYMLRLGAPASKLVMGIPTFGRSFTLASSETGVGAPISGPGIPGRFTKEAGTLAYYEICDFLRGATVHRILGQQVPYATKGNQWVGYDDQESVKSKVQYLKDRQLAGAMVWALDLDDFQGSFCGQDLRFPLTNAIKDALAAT

Row | IC50 [µM] | Structure (SMILES)
1 | 0.1 to 1 | O[C@@H]1C[C@H]2CN(C3CCN(c4ncccn4)CC3)[C@@H](Cc3ccc(Cl)cc3)CN2C1 [Example 40, (3S,7R,8aS)-3-(4-chlorobenzyl)-2-(1-(pyrimidin-2-yl)piperidin-4-yl)octahydropyrrolo[1,2-α]pyrazin-7-ol 2,2,2-trifluoroacetate]
2 | 1 to 10 | CN1CCN(C[C@H]2CN(C3CCN(c4ncccn4)CC3)[C@@H](Cc3ccc(Cl)cc3)CO2)CC1 [compound 71, (2S,5S)-5-(4-chlorobenzyl)-2-((4-methylpiperazin-1-yl)methyl)-4-(1-(pyrimidin-2-yl)piperidin-4-yl)morpholine 2,2,2-trifluoroacetate]
3 | > 100 | Cc1ccc(N2CCC(N3C[C@H](C)OC[C@@H]3Cc3ccc(Cl)cc3)CC2)nc1 [compound 136, (2S,5S)-5-(4-chlorobenzyl)-2-methyl-4-(1-(5-methylpyridin-2-yl)piperidin-4-yl)morpholine hydrochloride]
4 | 10 to 100 | C[C@H]1CN(C2CCN(c3ncccc3C(F)(F)F)CC2)[C@@H](Cc2ccc(Cl)cc2)CO1 [compound 49, (2S,5S)-5-(4-chlorobenzyl)-2-methyl-4-(1-(3-(trifluoromethyl)pyridin-2-yl)-piperidin-4-yl)morpholine 2,2,2-trifluoroacetate]
5 | 10 to 100 | CO[C@H]1CN(c2cc(Cl)ccn2)CC[C@@H]1N1C[C@H](C)OC[C@@H]1Cc1ccc(Cl)cc1 [compound 60, (2S,5S)-5-(4-chlorobenzyl)-4-((3S,4S)-1-(4-chloropyridin-2-yl)-3-methoxypiperidin-4-yl)-2-methylmorpholine 2,2,2-trifluoroacetate]
6 | > 100 | C[C@H]1CN(C2CCN(c3nncs3)CC2)[C@@H](Cc2ccc(Cl)cc2)CO1 [compound 181, (2S,5S)-4-(1-(1,3,4-thiadiazol-2-yl)piperidin-4-yl)-5-(4-chlorobenzyl)-2-methylmorpholine 2,2,2-trifluoroacetate]
7 | > 100 | O=C1c2ccccc2C(=O)N1C[C@H]1CN(C2CCN(c3ncccn3)CC2)[C@@H](Cc2ccc(Cl)cc2)CO1 [compound 76, 2-(((2R,5S)-5-(4-chlorobenzyl)-4-(1-(pyrimidin-2-yl)piperidin-4-yl)morpholin-2-yl)methyl)isoindoline-1,3-dione dihydrochloride]
8 | 1 to 10 | O=C1CCC(=O)N1C[C@H]1CN(C2CCN(c3ncccn3)CC2)[C@@H](Cc2ccc(Cl)cc2)CO1 [compound 77, 1-(((2R,5S)-5-(4-chlorobenzyl)-4-(1-(pyrimidin-2-yl)piperidin-4-yl)morpholin-2-yl)methyl)pyrrolidine-2,5-dione 2,2,2-trifluoroacetate]
9 | > 100 | C[C@H]1CN(C2CCN(c3ccnc(Cl)n3)CC2)[C@@H](Cc2ccc(Cl)cc2)CO1 [compound 66, (2S,5S)-5-(4-chlorobenzyl)-4-(1-(2-chloropyrimidin-4-yl)piperidin-4-yl)-2-methylmorpholine]
10 | 0.1 to 1 | Cc1ccnc(N2CCC(N3C[C@H](C)OC[C@@H]3Cc3ccc(Cl)cc3)CC2)c1C#N [compound 47, 2-(4-((2S,5S)-5-(4-chlorobenzyl)-2-methylmorpholino)piperidin-1-yl)-4-methyl-nicotinonitrile 2,2,2-trifluoroacetate]
11 | > 100 | CC(C)c1nc(N2CCC(N3C[C@H](C)OC[C@@H]3Cc3ccc(Cl)cc3)CC2)no1 [compound 163, (2S,5S)-5-(4-chlorobenzyl)-4-(1-(5-isopropyl-1,2,4-oxadiazol-3-yl)piperidin-4-yl)-2-methylmorpholine 2,2,2-trifluoroacetate]
12 | > 100 | C[C@H]1CN(C2CCN(c3ncnc(Cl)n3)CC2)[C@@H](Cc2ccc(Cl)cc2)CO1 [compound 169, (2S,5S)-4-(1-(4-chloro-1,3,5-triazin-2-yl)piperidin-4-yl)-5-(4-chlorobenzyl)-2-methylmorpholine 2,2,2-trifluoroacetate]
13 | 1 to 10 | C[C@H]1CN(C2CCN(c3ncccc3Cl)CC2)[C@@H](Cc2ccc(Cl)cc2)CO1 [Example 23, (2S,5S)-5-(4-chlorobenzyl)-4-(1-(3-chloropyridin-2-yl)piperidin-4-yl)-2-methylmorpholine 2,2,2-trifluoroacetate]
14 | > 100 | Cc1nsc(N2CCC(N3C[C@H](C)OC[C@@H]3Cc3ccc(Cl)cc3)CC2)n1 [compound 180, (2S,5S)-5-(4-chlorobenzyl)-2-methyl-4-(1-(3-methyl-1,2,4-thiadiazol-5-yl)piperidin-4-yl)morpholine 2,2,2-trifluoroacetate]
15 | 1 to 10 | Cc1cnnc(N2CCC(N3C[C@H](C)OC[C@@H]3Cc3ccc(Cl)cc3)CC2)c1 [Example 30, (2S,5S)-5-(4-chlorobenzyl)-2-methyl-4-(1-(5-methylpyridazin-3-yl)piperidin-4-yl)morpholine 2,2,2-trifluoroacetate]
16 | 1 to 10 | CC[C@H]1CN(C2CCN(c3ccccn3)CC2)[C@@H](Cc2ccc(Cl)cc2)CN1CC(C)C [compound 94, (2S,5S)-2-(4-chlorobenzyl)-5-ethyl-4-isobutyl-1-(1-(pyridin-2-yl)piperidin-4-yl)piperazine 2,2,2-trifluoroacetate]
17 | > 100 | C[C@H]1CN(C2CCN(c3cccc(C#N)n3)CC2)[C@@H](Cc2ccc(Cl)cc2)CO1 [Example 18, 6-(4-((2S,5S)-5-(4-chlorobenzyl)-2-methylmorpholino)piperidin-1-yl)picolinonitrile 2,2,2-trifluoroacetate]
18 | > 100 | C[C@H]1CN(C2CCN(c3ccc(C#N)cn3)CC2)[C@@H](Cc2ccc(Cl)cc2)CO1 [Example 19, 6-(4-((2S,5S)-5-(4-chlorobenzyl)-2-methylmorpholino)piperidin-1-yl)nicotinonitrile 2,2,2-trifluoroacetate]
19 | > 100 | C[C@H]1CN(C2CCN(c3ccncn3)CC2)[C@@H](Cc2ccc(Cl)cc2)CO1 [Example 26, (2S,5S)-5-(4-chlorobenzyl)-2-methyl-4-(1-(pyrimidin-4-yl)piperidin-4-yl)morpholine 2,2,2-trifluoroacetate]

Row | Structure (SMILES) | IC50 [µM]
20 | CNC(=O)[C@H]1CN(C2CCN(c3ccccn3)CC2)[C@@H](Cc2ccc(Cl)cc2)CO1 [compound 154, (2R,5S)-5-(4-chlorobenzyl)-N-methyl-4-(1-(pyridin-2-yl)piperidin-4-yl)morpholine-2-carboxamide hydrochloride] | 0.1 to 1
21 | COC(C)(C)CN1C[C@H](Cc2ccc(Cl)cc2)N(C2CCN(c3ccccn3)CC2)C[C@@H]1CC(C)C [compound 100, (2S,5S)-2-(4-chlorobenzyl)-5-isobutyl-4-(2-methoxy-2-methylpropyl)-1-(1-(pyridin-2-yl)piperidin-4-yl)piperazine 2,2,2-trifluoroacetate] | 1 to 10
22 | C[C@@H](O)[C@H]1CN(C2CCN(c3ccccn3)CC2)[C@@H](Cc2ccc(Cl)cc2)CN1C [compound 110, (R)-1-((2R,5S)-5-(4-chlorobenzyl)-1-methyl-4-(1-(pyridin-2-yl)piperidin-4-yl)piperazin-2-yl)ethan-1-ol] | < 0.1
23 | Clc1ccc(C[C@H]2COc3ccccc3CN2C2CCN(c3ccccn3)CC2)cc1 [compound 81, (S)-3-(4-chlorobenzyl)-4-(1-(pyridin-2-yl)piperidin-4-yl)-2,3,4,5-tetrahydrobenzo[f][1,4]oxazepine hydrochloride] | > 100
